Measurements published in US6407064B2, “Aminoalcohol derivative and medicament comprising the same” (Seikagaku Corporation, priority 1999, dated 2002).
Values belong to the molecule of their own block, whether it stands above or below them.

Experiments:
[1] = target: T1, enzyme for glucosylceramide biosynthesis (Homo sapiens, UniProt Q16739); conditions: J. Lipid Res. 28: 565-571 (1987); cited from earlier work
T1 sequence (Q16739 1-394): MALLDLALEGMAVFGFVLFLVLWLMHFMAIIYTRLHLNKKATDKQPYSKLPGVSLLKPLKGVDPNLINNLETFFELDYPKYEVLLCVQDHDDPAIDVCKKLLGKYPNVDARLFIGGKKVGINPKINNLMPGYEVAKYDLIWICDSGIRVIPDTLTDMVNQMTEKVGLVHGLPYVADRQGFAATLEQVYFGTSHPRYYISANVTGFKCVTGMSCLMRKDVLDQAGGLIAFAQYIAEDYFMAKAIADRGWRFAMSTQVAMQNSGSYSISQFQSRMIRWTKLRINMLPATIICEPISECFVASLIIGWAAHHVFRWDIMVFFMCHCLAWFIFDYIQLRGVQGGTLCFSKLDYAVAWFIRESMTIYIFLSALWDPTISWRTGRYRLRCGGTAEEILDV

[2] = tested on: GSLs which are produced starting with glucosylceramide; conditions: J. Lipid Res. 28: 565-571 (1987); cited from earlier work
[3] = tested on: neurite; conditions: literature; cited from earlier work
[4] = tested on: synaptic function; conditions: Biochem. Biophys. Res. Commun. 222: 494-498 (1996); cited from earlier work
[5] = tested on: enzyme for ganglioside GM3 synthesis, mouse B16 melanoma cell; test: Activity of enzyme for ganglioside GM3 synthesis (14C-Gal incorporated in total lipid fraction); assay type: cell-based; conditions: relative value, control regarded as 100; test compound 24 μM, 24 hours; 14C-Gal incorporation
Experimental: The gangliosides produced by mouse B16 melanoma cell are almost composed of ganglioside GM3. Therefore, the activity of the enzyme for ganglioside GM3 synthesis can be determined conveniently by measuring the amount of ^14C-Gal incorporated in a total lipid-extracted fraction through a liquid layer partition method.
(§1) A liquid where the cells of mouse B16 melanoma were suspended was prepared with Dulbecco modified Eagle's medium containing 10% bovine fetal serum, inoculated into a 12-well plate in an amount of 2.0×10^5 cells/ml/well, and cultured in 5% CO2 incubator at 37° C. The treatment with a test compound (24 μM) and the addition of ^14C-Gal (22.2 kBq/11.7 nmol/6 μl/well) were started through the exchange of total amount of the medium 24 hours after the culture was started. Twenty-four hours after the treatment with the test compound was started, the culture mixture was treated with PBS containing 0.02% EDTA and PBS containing 0.25% trypsin successively to recover the cells.
Then, a mixed solvent of chloroform:methanol=2:1 (3 ml) was added to the cell pellet and, after the subjection to an ultrasonication for 30 minutes, the supernatant was recovered. Furthermore, a mixed solvent of chloroform:methanol=1:1 (3 ml) was added to the residual pellet after the recovery of the supernatant, and a similar operation was carried out. The resulting supernatant was combined with the first supernatant and the whole was evaporated to dryness under a nitrogen stream. A desalinated water (1.0 ml) was added to the total lipid-extracted fraction. After having been subjected to an ultrasonication for 1 minute, the mixture was transferred into a dialysis tube and dialyzed against water for 2 days. The sample after the dialysis was transferred into a vial for liquid scintillation counter and, after the addition of scintillator, the activity of incorporating ^14C-Gal was measured on scintillation counter.
The values of activity of the compounds of the present invention are shown as relative values obtained by calculation on the basis that the value of a control (a group where no test compound was added) is regarded as 100 in Table 3 below.

[6] = tested on: cultured neurocytes of rat fetal cerebral cortex; test: Activity of accelerating synapse formation (intracellular calcium ion level, fura-2); assay type: cell-based; conditions: relative value, L-PDMP regarded as 100; compound 20 μM; assay on 10th day of culture
Experimental: The activity of accelerating synapse formation was determined by measuring change of an intracellular calcium ion level resulted from the synchronized spontaneous ignition of neurocytes which is considered to show synapse activities by means of an intracellular calcium ion multipoint observation system using a calcium ion fluorescence indicator, fura-2.
Concretely, rat fetuses at the 18th day of pregnancy were taken out from Wistar rats (available from Japan SLC), and cerebral cortices of the fetuses were taken out and cut into small pieces. After having been treated with papain (manufactured by Worthington Biochemical) at 37° C. for 30 minutes, the pieces were suspended into a Dulbecco modified Eagle's medium containing 5% bovine neonatal serum and 5% equine serum and the cortices were dissociated into single cells with Cell Striner (70 μm, Falcon). Then, the cells were inoculated into a flexiperm plate coated with 0.5% polyethyleneimine (1.0×10^6 cells/500 μl/well), and was cultured in 7% CO2 incubator at 37° C. The medium was exchanged on 2nd, 5th, and 8th days after the culture had been started. The activity of the compound of the present invention was measured using the primary culture. The compound was added at the time when the medium was exchanged and the concentration of the compound was maintained to be 20 μM. Assay was carried out on 10th day after the culture had been started.
(2) Measurement of Activity of Accelerating Synapse Formation
Concretely, after the medium of each well where cells were cultured was substituted with basic salt solution (BSS), 3 μl of a DMSO solution (1 mg/ml) of a calcium ion fluorescence indicator fura-2 was added, and the whole was kept at 37° C. for 1 hour.

[7] = tested on: ganglioside GM3, mouse B16 melanoma cells; test: Synthesized amount of ganglioside GM3 (HPTLC densitometry); assay type: cell-based; conditions: relative value, control regarded as 100, test compound 25 μM, 24 hours
Experimental: as §1, with “culture flask (175 cm^2)” for “12-well plate”, “0.8×10^7 cells/20 ml,” for “2.0×10^5 cells/ml/well,”, “(25” for “(24”, “was” for “and the addition of ^14C-Gal (22.2 kBq/11.7 nmol/6 μl/well) were”, “three fourths” for “total amount”
Then, a mixed solvent of chloroform:methanol=2:1 (4 ml) was added to the cell pellet and, after the subjection to an ultrasonication for 30 minutes, the cell pellet solution was allowed to stand at room temperature for a night and the supernatant was recovered. Furthermore, a mixed solvent of chloroform:methanol=1:1 (4 ml) was added to the residual pellet after the recovery of the supernatant, and a similar operation was carried out. The resulting supernatant was combined with the first supernatant and the whole was evaporated to dryness under a nitrogen stream. To the total lipid fraction was added a 0.1 N methanolic sodium hydroxide solution (2.0 ml) and the mixture was allowed to stand at 40° C. for 2 hours. Thereafter, 1 N hydrochloric acid (0.2 ml) was added thereto and the mixture was allowed to stand for 1.5 hours.
Then, the mixture was washed with n-hexane (2 ml×2) and, after the lower layer thus washed was evaporated to dryness under a nitrogen stream, the residue was desalinated by gel filtration chromatography (Sephadex LH-20 (manufactured by Amersham Pharmacia Biotech), diameter of 10 mm, height of 120 mm) using chloroform:methanol=2:1 as the eluting solvent. […] After orcinol-sulfuric acid reagent had been sprayed on the plate, it was heated at 110° C. for 5 minutes and colored spot of ganglioside GM3 was quantitatively determined by means of densitometer (a measuring wavelength of 505 nm). […]

[8] = Tissue distribution: concentration in plasma and skeletal muscle after oral or intravenous administration; assay type: in vivo; conditions: rat
Experimental: Tissue distribution of the compound in Example 19 was compared with that of L-PDMP using 6-8 week old Wistar male rats.
As oral administration, a physiological saline containing 20 mg/ml of a test substance was administered at 100 mg/5 ml/kg, and as intravenous administration, a physiological saline containing 1.25 mg/ml of a test substance was administered to the cervical vein at 5 mg/4 ml/kg.
After the predetermined time had passed since the above administration, blood was collected from the rat cervical vein, a 3.8% sodium citrate solution was added thereto at 1/10 volume, followed by centrifugation at 3,000 rpm for 15 minutes to obtain the supernatant as a plasma sample.
Also, after the predetermined time had passed since the above administration, the skeletal muscle was collected from the femoral region of both hind legs, ice water was added thereto at 4 ml/g tissue, followed by homogenization, and the same volume of acetonitrile was added thereto, followed by vigorously stirring and centrifugation at 4000 rpm for 10 minutes to obtain the supernatant as a skeletal muscle sample.
The plasma and skeletal muscle samples were extracted by OASIS HLB solid phase extraction column (manufactured by Waters), and the concentration of the test compound in the plasma and the muscle was determined by high performance liquid chromatography (HPLC). The conditions of HPLC analysis were as follows:
Detection wavelength: 218 nm
Column: DAISO PACK SP-120-5-ODS-BP
Column temperature: 40° C.
Mobile phase: 0.1% trifluoroacetic acid solution:methanol=36:64 (for L-PDMP); 0.1% trifluoroacetic acid solution:methanol=48:52 (for the compound in Example 19)
The concentrations in the plasma and skeletal muscle of the compound in Example 19 and L-PDMP after the predetermined time has been passed since the administration of the test compounds are shown in Tables 4-6 below. The values are the mean values of at least two test samples. Specifically, Table 4, Table 5, and Table 6 show the concentrations in the plasma after the oral administration of 100 mg/kg, the concentrations in the skeletal muscle after the oral administration of 100 mg/kg, and the concentrations in the plasma after the intravenous administration of 5 mg/kg, respectively.

SMILES: CCCCCCCCCC(=O)N[C@H](CN1CCOCC1)[C@H](O)c1ccccc1 [D-threo-PDMP, D-threo-1-phenyl-2-decanoylamino-3-morpholino-1-propanol]
effect on enzyme for glucosylceramide biosynthesis [1]: specifically inhibits | intracellular content of GSLs [2]: remarkably reduces intracellular content of all GSLs | effect on neurite extension [3]: suppresses the extension of neurite | effect on synaptic function [4]: suppresses synaptic function

SMILES: O=C(CNC(=O)OCc1ccccc1)N[C@@H](CN1CCOCC1)[C@@H](O)c1ccccc1 [Example 1]
Activity of accelerating glycolipid biosynthesis (Test Example 2) [5]: 85.2

SMILES: O=C(CNC(=O)OCc1ccccc1)NCC(=O)N[C@@H](CN1CCOCC1)[C@@H](O)c1ccccc1 [Example 2]
Activity of accelerating glycolipid biosynthesis (Test Example 2) [5]: 130.9

SMILES: CCCCOC(=O)NCC(=O)N[C@@H](CN1CCOCC1)[C@@H](O)c1ccccc1 [Example 3]
Activity of accelerating glycolipid biosynthesis (Test Example 2) [5]: 98.6

SMILES: CCCCCC(=O)NCC(=O)N[C@@H](CN1CCOCC1)[C@@H](O)c1ccccc1 [Example 4, (1S,2S)-2-(n-hexanoyl)glycylamino-3-morpholino-1-phenyl-1-propanol]
Activity of accelerating glycolipid biosynthesis (Test Example 2) [5]: 71.3

SMILES: CCCCOC(=O)CCC(=O)N[C@@H](CN1CCOCC1)[C@@H](O)c1ccccc1 [Example 5, (1S,2S)-2-(n-butoxy)butanedioylamino-3-morpholino-1-phenyl-1-propanol]
Activity of synapse formation [6]: 92.5 | Activity of accelerating glycolipid biosynthesis (Test Example 2) [5]: 122.3 | Glycolipid content (Test Example 3) [7]: 131.2

concentration at 10 min ([8]; male, Wistar, plasma, intravenous administration of 5 mg/kg, 10 min): 2240 ng/mL | concentration at 25 min ([8]; male, Wistar, plasma, intravenous administration of 5 mg/kg, 25 min): 560 ng/mL | concentration at 5 min ([8]; male, Wistar, plasma, oral administration of 100 mg/kg, 5 min): 2620 ng/mL | concentration at 15 min ([8]; male, Wistar, plasma, oral administration of 100 mg/kg, 15 min): 8660 ng/mL | concentration at 30 min ([8]; male, Wistar, plasma, oral administration of 100 mg/kg, 30 min): 6140 ng/mL | concentration at 60 min ([8]; male, Wistar, plasma, oral administration of 100 mg/kg, 60 min): 950 ng/mL | tissue distribution compared with L-PDMP ([8]; in words): higher tissue distribution than L-PDMP
SMILES: CCCCOCCOCC(=O)N[C@@H](CN1CCOCC1)[C@@H](O)c1ccccc1 [Example 19, (1S,2S)-2-(3,6-dioxadecanoyl)amino-3-morpholino-1-phenyl-1-propanol]
Activity of synapse formation [6]: 90.8 | retention in plasma and skeletal muscle compared with L-PDMP ([8]; in words): kept in the plasma and skeletal muscle for a longer time

SMILES: O=C(O)CCCCCCCCC(=O)N[C@@H](CN1CCOCC1)[C@@H](O)c1ccccc1 [Example 25, (1S,2S)-2-(9-carboxynonanoyl)amino-3-morpholino-1-phenyl-1-propanol]
Activity of accelerating glycolipid biosynthesis (Test Example 2) [5]: 89.2 | Glycolipid content (Test Example 3) [7]: 114.5
